{"source": "patent US6759538B2", "about": "“Substituted diphenyl heterocycles useful for treating HCV infection” (priority 2001, dated 2004)", "key": {"[1]": {"test_system": "HCV nonstructural protein NS5A", "test": "Quantitative Western blot assay", "format": "cell-based, Hepatitis C virus (HCV)", "conditions": "9-13 replicon cells, 48 hours with compound, second symbol of Replicon/Western", "procedure": "Alternatively, the inhibitory activity of the compounds can be confirmed using a quantitative Western immunoblot assay utilizing antibodies specific for HCV non-structural proteins, such as NS3, NS4A NS5A and NS5B. In one embodiment of this assay, replicon cells are treated with varying concentrations of test compound to determine the concentration of test compound that yields a 50% reduction in the amount of a non-structural protein produced as compared to a control sample (IC50). A single non-structural protein may be quantified or multiple non-structural proteins may be quantified. Antibodies suitable for carrying out such immunoblot assays are available commercially (e.g., from BIODESIGN International, Saco, Me.).\nCertain exemplary compounds of the invention were also tested for their ability to inhibit HCV replication using a quantitative Western blot analysis with antibodies specific for the HCV nonstructural protein NS5A. Actively dividing 9-13 replicon cells were seeded into 6-well plates at a density of 1×10^5 cells/well in a volume of 2 ml/well and incubated at 37° C. and 5% CO2 for 24 hours. Various concentrations of test compounds (in a volume of 10 ul) were added to the wells and the cells incubated for another 48 hours. Protein samples were prepared from the cultured cells, resolved on a SDS-PAGE gel and transferred to a nitrocellulose membrane. The membrane was blocked with 5% non-fat milk in PBS for 1 hour at room temperature. Primary antibody (anti NS5A antibody; BIODESIGN International, Saco, Me.) incubation was performed for 1 hour at room temperature, after which the membrane was washed 3 times (for 15 min per time) with PBST (PBS plus 0.1% Tween 20). Horseradish peroxidase conjugated secondary antibody incubation was performed for 1 hour at room temperature and the membrane was washed 3 times (for 15 min per time) with PBST. The membrane was then soaked in substrate solution (Pierce) and exposed to a film or quantified using an imager. In this assay, the amount of test compound that yielded a 50% reduction in the amount of NS5A protein translated as compared to a control sample (IC50) was determined."}, "[2]": {"test": "Safety studies in rats, subcutaneous and intravenous administration", "procedure": "The safety of compound 9 was evaluated in rats by both subcutaneous and intravenous administration in several experiments. […] The experiments performed are summarized below.\nIn a second study compound 9 was administered by the IV route at doses of 10 and 30 mg/kg in 100% PEG. The volume administered for the 10 mg/kg dose was 0.67 ml/kg/day and volume given the 30 mg/kg group was 2 ml/kg/day. In addition, there were two control groups. One control received 100% PEG alone at a volume of 2 ml/kg/day while the other was an untreated sham control group. […] Parameters of study included: clinical observations, body weights, hematology, clinical chemistry, gross necropsy, organ weights, bone marrow assessment and histopathology of selected organs.\nA vehicle control group received the 100% PEG alone at the same volume. Groups comprised 3 males and 3 females each. Before reducing the dose to 10 and 30 mg/kg two rats received 100 mg/kg IV at a volume of 1 ml/kg. […] Parameters of study included: clinical observations, body weights, hematology, clinical chemistry, gross necropsy, organ weights and histopathology of selected organs (including injection sites)."}, "[3]": {"test": "Toxicokinetic determinations in rats", "conditions": "rat"}, "[4]": {"molecular_target": "HCV replicon", "test": "HCV replicon assay (luciferase)", "format": "cell-based, Hepatitis C virus (HCV)", "conditions": "5-2 Luc replicon cells, 24 hours with compound, luciferase emission; first symbol of Replicon/Western"}, "[5]": {"test_system": "HCV virus", "test": "HCV infection assay", "format": "cell-based, Hepatitis C virus (HCV)", "conditions": "hepatocyte cells from a donor, inoculated Day 3, RNA Day 8; read-out: IC50 HCV infection assay (HCV RNA, Taqman)", "excerpt": "Alternatively, the inhibitory activity of the compounds may be confirmed in an HCV infection assay, such as the HCV infection assay described in Fournier et al., 1998, J. Gen. Virol. 79(10):2367:2374, the disclosure of which is incorporated herein by reference. In one embodiment of this assay, the amount of test compound that yields a 50% reduction in HCV replication or proliferation as compared to a control cell (IC50) may be determined. The extent of HCV replication may be determined by quantifying the amount of HCV RNA present in HCV infected cells. A specific method for carrying out such an assay is provided in the Examples section.\nThe activity of Compound 9 was also confirmed in an HCV infection assay. The assay was carried out essentially as described in Fournier et al., 1998, J. Gen. Virol. 79:2367-2374. Briefly, hepatocyte cells from a doner were plated on Day 1. On Day 3, the cells were inoculated with HCV virus and test compound was added. On Day 5, the medium was changed and test compound was added. On Day 7, the medium was changed and test compound was added. On Day 8, the RNA was isolated and the HCV RNA quantified using a Taqman assay."}, "[6]": {"test": "Pharmacokinetics, plasma levels with liposome suspension vehicles", "format": "in vivo, rats, monkeys and chimpanzees", "conditions": "subcutaneous, liposome suspension vehicles: 5 mg/ml in water with 100 or 200 mg/ml lecithin, or 100 mg/ml lecithin and 5 mg/ml cholesterol", "procedure": "The pharmacokinetic properties of compound 9 were calculated in rats, monkeys and chimpanzees using the intravenous and subcutaneous routes of administration with a variety of different delivery vehicles."}}, "data": [{"smiles": "O=C(Nc1cccc(-c2cc(-c3c(Cl)cccc3Cl)no2)c1)C(Cl)Cl", "note": "[Compound 9, 2,2-Dichloro-N-[3-[3-(2,6-dichlorophenyl)-5-isoxazolyl]phenyl] Acetamide]", "values": [{"measurement": "IC50", "setting": "[1]", "result": "≤ 10", "unit": "µM"}, {"measurement": "other findings, second study", "setting": "[2]; IV 10 and 30 mg/kg, 7 days", "result": "no untoward findings"}, {"measurement": "well tolerated dose, first study", "setting": "[2]; Sprague Dawley rats, SC and IV, dose escalation", "result": "≤ 30", "unit": "mg/kg"}, {"measurement": "clinical signs at IV 60 mg/kg", "setting": "[2]; first study, Day 5, IV 60 mg/kg in 100% PEG", "result": "immediate clinical signs (collapsing, thrashing, dyspnea and reddish discolored urine) were observed"}, {"measurement": "time for symptoms to abate", "setting": "[2]; first study, IV 60 mg/kg", "result": "≤ 1", "unit": "h"}, {"measurement": "NOAEL (no observed adverse effect level)", "setting": "[2]; rat, IV, 7 days", "result": 30, "unit": "mg/kg"}, {"measurement": "NOAEL", "setting": "[2]; rat, intravenous, 14-days", "result": 30, "unit": "mg/kg"}, {"measurement": "well tolerated dose", "setting": "[2]; rats, subcutaneous and intravenous", "result": "≤ 30", "unit": "mg/kg/day"}, {"measurement": "hematology finding at 30 mg/kg", "setting": "[2]; second study, IV, 100% PEG, 7 days, relative to untreated control but not vehicle control", "result": "very slight decreases in red blood cells, hemoglobin and hematocrit"}, {"measurement": "necropsy findings", "setting": "[2]; third study, IV 10 and 30 mg/kg", "result": "no gross or microscopic morphological changes"}, {"measurement": "clinical observations, body weights, hematology, clinical chemistry, organ weights", "setting": "[2]; third study, IV 10 and 30 mg/kg, versus vehicle control", "result": "unaffected by treatment"}, {"measurement": "mortality at 100 mg/kg IV", "setting": "[2]; third study, two rats, 100 mg/kg IV, 1 ml/kg", "result": "Both animals died within a minute or two of dosing"}, {"measurement": "T1/2", "setting": "[3]; IV", "result": "about 5 minutes"}, {"measurement": "exposure, IV route", "setting": "[3]; IV", "result": "high exposure"}, {"measurement": "persistence of measurable compound", "setting": "[3]; IV", "result": "still apparent after 2 hours"}, {"measurement": "Tmax", "setting": "[3]; SC", "result": "about 30 minutes"}, {"measurement": "exposure, subcutaneous route", "setting": "[3]; SC", "result": "much lower exposure"}, {"measurement": "persistence of exposure", "setting": "[3]; SC", "result": "remains sustained through 2 hours post-dosing"}, {"measurement": "IC50", "setting": "[4]", "result": "≤ 10", "unit": "µM"}, {"measurement": "IC50", "setting": "[5]", "result": "< 10", "unit": "µM"}, {"measurement": "plasma levels", "setting": "[6]", "result": "Sustained plasma levels were achieved"}]}]}
